# In patent US10118947B2, “Modulation of structured polypeptide specificity” (BICYCLE THERAPEUTICS LIMITED, priority 2013, dated 2018):
# Like-named read-outs stand apart in the source and are kept apart here. Numbered stars: 1 amine (or outer) side, 2 acyl side, 3 side chain; on linkers, the order of the positions; unused ones are H or OH. Bridge positions count the residues as written; N and C are the ends. Square brackets hold non-standard residues; d marks the D form. Peptide text beside a SMILES is read from it. Ala(4-thiazolyl) = N[C@@H](Cc1cscn1)C(=O)O; Ala(2-furyl) = N[C@@H](Cc1ccco1)C(=O)O; TBMB = c1c(C[*:1])cc(C[*:3])cc1C[*:2]; X1 = O=C([C@H](Cn1cncn1)N[*:1])[*:2]; His(π-Me) = Cn1cncc1C[C@H](N)C(=O)O; 2Pal = N[C@@H](Cc1ccccn1)C(=O)O; Chg = N[C@H](C(=O)O)C1CCCCC1; NMeS = CN[C@@H](CO)C(=O)O
# Molecular target: T1, human plasma Kallikrein (Homo sapiens, UniProt P03952)
# T1 construct: purchased Stratech, UK
# Test: Functional enzyme inhibition assay with fluorogenic substrate Z-PheArg-AMC, human plasma Kallikrein
# Assay type: biochemical
# Settings: for F (Kivar/KiWT): ratio of Ki to wild type
# Method: Functional enzyme assays were conducted in 10 mM Tris HCl, 150 mM NaCl, 10 mM MgCl2, 1 mM CaCl2) and 1 mg/mL BSA (all Sigma UK) pH7.4 at 25° C. in solid black 96 well plates. Briefly 26.5 pM human plasma Kallikrein (purchased from Stratech, UK) or 500 pM rat plasma Kallikrein (expressed and purified in house) were incubated in the absence or presence of increasing concentrations of test peptide for 15 minutes before addition of the fluorogenic substrate Z-PheArg-AMC (Enzo Lifesciences UK) to a final assay concentration of 100 μM in 4% DMSO. Release of AMC was measured using a Pherastar FS (BMG Labtech), excitation 360 nm, emission 460 nm. The rate of the linear phase of the reaction, typically 5 to 45 minutes, was calculated in MARS data analysis software (BMG labtech). The rate was then used to calculate the IC50 and Ki in Prism (GraphPad). A four parameter inhibition non-linear regression equation was used to calculate the IC50.
# Peptides were dissolved as the TFA-salts in their powder form, and stock solutions were usually prepared in water. All solutions were centrifuged and filtered ([…] syringe filters) prior absorption measurement at 280 nm. […] For peptides containing non-natural amino acids with suspected chromophoric properties (i.e. NorHar, 4PhenylPro, 3Pal, 4Pal, Tic, 4GuanPhe, 4,4-BPAI, 3,3-DPA, 1NAI, 2NAI, 4BenzylPro, Ind) concentrations were determined by weighing the powder and dissolving the peptide in a defined quantity of water.
# [1] = Table 24b, residue 7 modifications, read-out: Ki
# [2] = Table 24c, residue 8 modifications, read-out: Ki
# [3] = Table 3c, D-Alanine scan in Loop2, read-out: Ki
# T1 sequence (P03952 20-638): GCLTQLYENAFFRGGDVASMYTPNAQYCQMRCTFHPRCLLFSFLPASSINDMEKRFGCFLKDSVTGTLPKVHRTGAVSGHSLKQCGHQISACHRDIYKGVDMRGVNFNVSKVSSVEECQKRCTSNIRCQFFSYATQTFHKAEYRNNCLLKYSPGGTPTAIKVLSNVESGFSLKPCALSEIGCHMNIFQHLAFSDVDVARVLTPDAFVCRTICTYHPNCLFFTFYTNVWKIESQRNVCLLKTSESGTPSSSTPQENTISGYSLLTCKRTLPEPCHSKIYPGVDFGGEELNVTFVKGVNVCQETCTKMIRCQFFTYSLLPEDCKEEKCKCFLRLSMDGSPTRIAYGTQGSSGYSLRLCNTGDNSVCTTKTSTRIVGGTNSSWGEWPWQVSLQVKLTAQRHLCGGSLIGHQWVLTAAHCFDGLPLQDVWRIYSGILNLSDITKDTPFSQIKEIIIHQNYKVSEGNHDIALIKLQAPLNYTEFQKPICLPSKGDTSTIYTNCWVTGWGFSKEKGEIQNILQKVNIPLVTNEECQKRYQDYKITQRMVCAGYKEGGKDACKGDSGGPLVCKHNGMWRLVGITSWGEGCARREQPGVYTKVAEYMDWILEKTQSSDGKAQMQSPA
smiles,measurement,setting,value
CC(=O)N[C@H]1CSCc2cc3cc(c2)CSC[C@H](NC(=O)[C@H](CCCNC(=N)N)NC(=O)[C@H](Cc2ccc(O)cc2)NC(=O)[C@@H]2CCCN2C(=O)[C@H](Cc2ccccc2)NC(=O)[C@H](CO)NC1=O)C(=O)N[C@@H](CC(C)C)C(=O)N[C@@H](Cc1cscn1)C(=O)N[C@@H](CCC(N)=O)C(=O)N[C@@H](CC(=O)O)C(=O)N[C@@H](CC(C)C)C(=O)N[C@H](C(N)=O)CSC3 [Ac-(06-34-18) Phe2 Tyr4 4ThiAz7] (Ac-CSFPYRCL[Ala(4-thiazolyl)]QDLC-NH2; linker 1-7-13 via TBMB),Ki,[1],14 nM
same,F (Kivar/KiWT),Table 24b,33
CC(=O)N[C@H]1CSCc2cc3cc(c2)CSC[C@H](NC(=O)[C@H](CCCNC(=N)N)NC(=O)[C@H](C)NC(=O)[C@@H]2CCCN2C(=O)[C@@H](Cc2c[nH]c4ccccc24)NC(=O)[C@H](CO)NC1=O)C(=O)N[C@@H](CC(C)C)C(=O)N[C@@H](Cc1c[nH]cn1)C(=O)N[C@@H](CCC(N)=O)C(=O)N[C@@H](CC(=O)O)C(=O)N[C@@H](CC(C)C)C(=O)N[C@H](C(N)=O)CSC3 [Ac-(06-34-18) D-Trp2],reduction in potency/affinity compared to wildtype,,45000 fold
CC(=O)N[C@H]1CSCc2cc3cc(c2)CSC[C@H](NC(=O)[C@H](CCCNC(=N)N)NC(=O)[C@H](Cc2ccc(O)cc2)NC(=O)[C@@H]2CCCN2C(=O)[C@H](Cc2ccccc2)NC(=O)[C@H](CO)NC1=O)C(=O)N[C@@H](CC(C)C)C(=O)N[C@@H](Cc1c[nH]cn1)C(=O)N[C@@H](CC(=O)O)C(=O)N[C@@H](CC(=O)O)C(=O)N[C@@H](CC(C)C)C(=O)N[C@H](C(N)=O)CSC3 [Ac-(06-34-18) Phe2 Tyr4 Asp8] (Ac-CSFPYRCLHDDLC-NH2; linker 1-7-13 via TBMB),Ki,[2],3.83 nM
same,F (Kivar/KiWT),Table 24c,9
CC(=O)N[C@H]1CSCc2cc3cc(c2)CSC[C@H](NC(=O)[C@H](CCCNC(=N)N)NC(=O)[C@H](Cc2ccc(O)cc2)NC(=O)[C@@H]2CCCN2C(=O)[C@H](Cc2ccccc2)NC(=O)[C@H](CO)NC1=O)C(=O)N[C@@H](CC(C)C)C(=O)N[C@@H](Cc1c[nH]cn1)C(=O)N[C@@H](CCC(N)=O)C(=O)N[C@H](C)C(=O)N[C@@H](CC(C)C)C(=O)N[C@H](C(N)=O)CSC3 [Ac-(06-34-18) Phe2 Tyr4 D-Ala9] (Ac-CSFPYRCLHQ[dA]LC-NH2; linker 1-7-13 via TBMB),Ki,[3],19.9 nM
same,F (Kivar/KiWT),Table 3c,47
CC(=O)N[C@H]1CSCc2cc3cc(c2)CSC[C@H](NC(=O)[C@H](CCCNC(=N)N)NC(=O)[C@H](Cc2ccc(O)cc2)NC(=O)[C@@H]2CCCN2C(=O)[C@H](Cc2ccccc2)NC(=O)[C@H](CO)NC1=O)C(=O)N[C@@H](CC(C)C)C(=O)N[C@@H](Cc1ccccn1)C(=O)N[C@@H](CCC(N)=O)C(=O)N[C@@H](CC(=O)O)C(=O)N[C@@H](CC(C)C)C(=O)N[C@H](C(N)=O)CSC3 [Ac-(06-34-18) Phe2 Tyr4 2Pal7] (Ac-CSFPYRCL[2Pal]QDLC-NH2; linker 1-7-13 via TBMB),Ki,[1],53 nM
same,F (Kivar/KiWT),Table 24b,126
CC(C)C[C@@H]1NC(=O)[C@H](CC(=O)O)NC(=O)[C@H](CCC(N)=O)NC(=O)[C@H](Cc2c[nH]cn2)NC(=O)[C@H](CC(C)C)NC(=O)[C@@H]2CSCc3cc(cc(c3)CSC[C@H](NC(=O)[C@H](C)N)C(=O)N(C)[C@@H](CO)C(=O)N[C@@H](Cc3c[nH]c4ccccc34)C(=O)N3CCC[C@H]3C(=O)N[C@@H](C)C(=O)N[C@@H](CCCNC(=N)N)C(=O)N2)CSC[C@@H](C(=O)N[C@@H](C)C(N)=O)NC1=O [06-34-18-N-MeSer1] (H-AC[NMeS]WPARCLHQDLCA-NH2; linker 2-8-14 via TBMB),Ki,"Ki human PK (nM), Table 6",0.56 nM
"CC(=O)N[C@H]1CSCc2cc3cc(c2)CSC[C@H](NC(=O)[C@H](CCCNC(=N)N)NC(=O)[C@H](Cc2ccc(O)cc2)NC(=O)[C@@H]2CCCN2C(=O)[C@H](Cc2ccccc2)NC(=O)[C@H](CO)NC1=O)C(=O)N[C@@H](CC(C)C)C(=O)N[C@@H](Cn1cncn1)C(=O)N[C@@H](CCC(N)=O)C(=O)N[C@@H](CC(=O)O)C(=O)N[C@@H](CC(C)C)C(=O)N[C@H](C(N)=O)CSC3 [Ac-(06-34-18) Phe2 Tyr4 1,2,4-TriAz7] (Ac-CSFPYRCL[X1]QDLC-NH2; linker 1-7-13 via TBMB)",Ki,[1],455 nM
same,F (Kivar/KiWT),Table 24b,1084
CC(=O)N[C@H]1CSCc2cc3cc(c2)CSC[C@H](NC(=O)[C@H](CCCNC(=N)N)NC(=O)[C@H](Cc2ccc(O)cc2)NC(=O)[C@@H]2CCCN2C(=O)[C@H](Cc2ccccc2)NC(=O)[C@H](CO)NC1=O)C(=O)N[C@@H](CC(C)C)C(=O)N[C@@H](Cc1c[nH]cn1)C(=O)N[C@H](C)C(=O)N[C@@H](CC(=O)O)C(=O)N[C@@H](CC(C)C)C(=O)N[C@H](C(N)=O)CSC3 [Ac-(06-34-18) Phe2 Tyr4 D-Ala8] (Ac-CSFPYRCLH[dA]DLC-NH2; linker 1-7-13 via TBMB),Ki,[3],243 nM
same,F (Kivar/KiWT),Table 3c,578
CC(=O)N[C@H]1CSCc2cc3cc(c2)CSC[C@H](NC(=O)[C@H](CCCNC(=N)N)NC(=O)[C@@H](C)NC(=O)[C@@H]2CCCN2C(=O)[C@H](Cc2c[nH]c4ccccc24)NC(=O)[C@H](CO)NC1=O)C(=O)N[C@@H](CC(C)C)C(=O)N[C@@H](Cc1c[nH]cn1)C(=O)N[C@@H](CCC(N)=O)C(=O)N[C@@H](CC(=O)O)C(=O)N[C@@H](CC(C)C)C(=O)N[C@H](C(N)=O)CSC3 [Ac-(06-34-18) D-Ala4],reduction in potency/affinity compared to wildtype,,7000 fold
CC(=O)N[C@H]1CSCc2cc3cc(c2)CSC[C@H](NC(=O)[C@H](CCCNC(=N)N)NC(=O)[C@H](Cc2ccc(O)cc2)NC(=O)[C@@H]2CCCN2C(=O)[C@H](Cc2ccccc2)NC(=O)[C@H](CO)NC1=O)C(=O)N[C@@H](CC(C)C)C(=O)N[C@@H](Cc1c[nH]cn1)C(=O)N[C@@H](CCC(=O)O)C(=O)N[C@@H](CC(=O)O)C(=O)N[C@@H](CC(C)C)C(=O)N[C@H](C(N)=O)CSC3 [Ac-(06-34-18) Phe2 Tyr4 Glu8] (Ac-CSFPYRCLHEDLC-NH2; linker 1-7-13 via TBMB),Ki,[2],2.53 nM
same,F (Kivar/KiWT),Table 24c,6
CC(=O)N[C@H]1CSCc2cc3cc(c2)CSC[C@H](NC(=O)[C@H](CCCNC(=N)N)NC(=O)[C@H](C)NC(=O)[C@@H]2CCCN2C(=O)[C@H](Cc2c[nH]c4ccccc24)NC(=O)[C@H](CO)NC1=O)C(=O)N[C@@H](C1CCCCC1)C(=O)N[C@@H](Cc1c[nH]cn1)C(=O)N[C@@H](CCC(N)=O)C(=O)N[C@@H](CC(=O)O)C(=O)N[C@@H](CC(C)C)C(=O)N[C@H](C(N)=O)CSC3 [Ac-(06-34-18) Chg6] (Ac-CSWPARC[Chg]HQDLC-NH2; linker 1-7-13 via TBMB),Ki,"Table 24a, residue 6 modification in the context of Ac-(06-34-18), read-out: Ki (nM) Ac-(06-34-18)",0.13 nM
CC(=O)N[C@H]1CSCc2cc3cc(c2)CSC[C@H](NC(=O)[C@@H](CCCNC(=N)N)NC(=O)[C@H](C)NC(=O)[C@@H]2CCCN2C(=O)[C@H](Cc2c[nH]c4ccccc24)NC(=O)[C@H](CO)NC1=O)C(=O)N[C@@H](CC(C)C)C(=O)N[C@@H](Cc1c[nH]cn1)C(=O)N[C@@H](CCC(N)=O)C(=O)N[C@@H](CC(=O)O)C(=O)N[C@@H](CC(C)C)C(=O)N[C@H](C(N)=O)CSC3 [Ac-(06-34-18) D-Arg5],reduction in potency/affinity compared to wildtype,,300 fold
CC(=O)N[C@H]1CSCc2cc3cc(c2)CSC[C@H](NC(=O)[C@H](CCCNC(=N)N)NC(=O)[C@H](Cc2ccc(O)cc2)NC(=O)[C@@H]2CCCN2C(=O)[C@H](Cc2ccccc2)NC(=O)[C@H](CO)NC1=O)C(=O)N[C@@H](CC(C)C)C(=O)N[C@@H](Cc1ccco1)C(=O)N[C@@H](CCC(N)=O)C(=O)N[C@@H](CC(=O)O)C(=O)N[C@@H](CC(C)C)C(=O)N[C@H](C(N)=O)CSC3 [Ac-(06-34-18) Phe2 Tyr4 4FuAla7] (Ac-CSFPYRCL[Ala(2-furyl)]QDLC-NH2; linker 1-7-13 via TBMB),F (Kivar/KiWT),Table 24b,39
CC(=O)N[C@H]1CSCc2cc3cc(c2)CSC[C@H](NC(=O)[C@H](CCCNC(=N)N)NC(=O)[C@H](C)NC(=O)[C@@H]2CCCN2C(=O)[C@H](Cc2c[nH]c4ccccc24)NC(=O)[C@H](CO)NC1=O)C(=O)N[C@@H](CC(C)C)C(=O)N[C@@H](Cc1c[nH]cn1)C(=O)N[C@H](C)C(=O)N[C@@H](CC(=O)O)C(=O)N[C@@H](CC(C)C)C(=O)N[C@H](C(N)=O)CSC3 [Ac-(06-34-18) D-Ala8] (Ac-CSWPARCLH[dA]DLC-NH2; linker 1-7-13 via TBMB),Ki,[3],11.7 nM
same,F (Kivar/KiWT),Table 3c,28
CC(=O)N[C@H]1CSCc2cc3cc(c2)CSC[C@H](NC(=O)[C@H](CCCNC(=N)N)NC(=O)[C@H](Cc2ccc(O)cc2)NC(=O)[C@@H]2CCCN2C(=O)[C@H](Cc2ccccc2)NC(=O)[C@H](CO)NC1=O)C(=O)N[C@@H](CC(C)C)C(=O)N[C@@H](Cc1cncn1C)C(=O)N[C@@H](CCC(N)=O)C(=O)N[C@@H](CC(=O)O)C(=O)N[C@@H](CC(C)C)C(=O)N[C@H](C(N)=O)CSC3 [Ac-(06-34-18) Phe2 Tyr4 His3Me7] (Ac-CSFPYRCL[His(π-Me)]QDLC-NH2; linker 1-7-13 via TBMB),Ki,[1],292 nM
same,F (Kivar/KiWT),Table 24b,696
